{
  "source": "patent US11491089B2",
  "about": "“Reloadable microcapsules” (International Flavors & Fragrances Inc., priority 2016, dated 2022)",
  "test": "Hansen solubility parameters of the core solvents",
  "assay_type": "physicochemical",
  "description": "The term “Hansen solubility parameter” refers to a solubility parameter approach proposed by Charles Hansen used to predict polymer solubility and was developed around the basis that the total energy of vaporization of a liquid consists of several individual parts. To calculate the “weighted Hansen solubility parameter” one must combine the effects of (atomic) dispersion forces, (molecular) permanent dipole-permanent dipole forces, and (molecular) hydrogen bonding (electron exchange). The “weighted Hansen solubility parameter” is calculated as (δD^2+δP^2+δH^2)^0.5, wherein δD is the Hansen dispersion value, δP is the Hansen polarizability value, and δH is the Hansen Hydrogen-bonding (“h-bonding”) value.",
  "data": [
    {"smiles": "CCCCCCCCCCCCCC(=O)OC(C)C", "note": "[isopropyl myristate]", "values": [
      {"measurement": "δD (Hansen dispersion value)", "value": 16},
      {"measurement": "δH (Hansen h-bonding value)", "value": 2.7},
      {"measurement": "δP (Hansen polar (dipole-dipole) value)", "value": 2.1}
    ]},
    {"smiles": "CC(=O)OCC(COC(C)=O)OC(C)=O", "note": "[triacetin]", "values": [
      {"measurement": "δD (Hansen dispersion value)", "value": 16.4},
      {"measurement": "δH (Hansen h-bonding value)", "value": 9.6},
      {"measurement": "δP (Hansen polar (dipole-dipole) value)", "value": 5.7}
    ]}
  ]
}
